The test has as its target T1, Interleukin-23 receptor (Homo sapiens, UniProt Q5VWK5).
T1 sequence (Q5VWK5 whole entry): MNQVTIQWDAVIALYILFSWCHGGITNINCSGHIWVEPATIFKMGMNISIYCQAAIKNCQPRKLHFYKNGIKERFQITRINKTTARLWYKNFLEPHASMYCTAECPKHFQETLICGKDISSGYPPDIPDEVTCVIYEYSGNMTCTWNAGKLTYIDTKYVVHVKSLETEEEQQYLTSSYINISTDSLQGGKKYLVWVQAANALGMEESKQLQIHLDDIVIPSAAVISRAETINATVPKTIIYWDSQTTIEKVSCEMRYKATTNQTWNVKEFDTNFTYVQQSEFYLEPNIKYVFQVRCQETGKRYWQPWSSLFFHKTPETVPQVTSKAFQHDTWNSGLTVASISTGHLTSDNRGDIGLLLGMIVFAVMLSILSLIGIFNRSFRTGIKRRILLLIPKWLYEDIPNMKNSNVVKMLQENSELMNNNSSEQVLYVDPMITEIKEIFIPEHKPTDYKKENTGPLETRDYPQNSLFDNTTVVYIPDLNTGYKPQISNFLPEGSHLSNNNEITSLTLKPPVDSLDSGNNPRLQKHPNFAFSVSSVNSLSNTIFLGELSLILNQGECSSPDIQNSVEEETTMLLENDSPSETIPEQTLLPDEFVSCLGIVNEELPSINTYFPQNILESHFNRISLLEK
The experiment in a line: Inhibition of interleukin-23 binding to human interleukin-23 receptor incubated for 2 hrs by competitive binding ELISA.

Where a SMILES comes first, the peptide text is derived from it.

IC50 data for 18 compounds are collected here from ChEMBL document CHEMBL4417631, “Oral peptide inhibitors of interleukin-23 receptor and their use to treat inflammatory bowel diseases” (2017).

`CC(=O)N[C@@H](CS)C(=O)N[C@@H](C)C(=O)N[C@@H](CC(=O)O)C(=O)N[C@@H](Cc1c[nH]c2ccccc12)C(=O)N[C@@H](CCCCNC(=O)COCC(=O)NCCCC[C@H](NC(=O)[C@H](Cc1c[nH]c2ccccc12)NC(=O)[C@H](CC(=O)O)NC(=O)[C@H](C)NC(=O)[C@H](CS)NC(C)=O)C(=O)N[C@@H](CS)C(=O)N[C@@H](Cc1ccc(O)cc1)C(=O)N[C@@H](Cc1c[nH]c2ccccc12)C(=O)N[C@@H](Cc1cnc[nH]1)C(=O)N[C@H](C(=O)N[C@@H](Cc1ccccc1)C(=O)NCC(=O)O)[C@@H](C)O)C(=O)N[C@@H](CS)C(=O)N[C@@H](Cc1ccc(O)cc1)C(=O)N[C@@H](Cc1c[nH]c2ccccc12)C(=O)N[C@@H](Cc1cnc[nH]1)C(=O)N[C@H](C(=O)N[C@@H](Cc1ccccc1)C(=O)NCC(=O)O)[C@@H](C)O` showed an IC50 of over 10 µM.
For `CCC(CC)(NC(=O)[C@H](CCCN)NC(=O)[C@H](Cc1c[nH]c2ccccc12)NC(=O)[C@H](Cc1ccc(O)cc1)NC(=O)[C@H](CS)NC(=O)[C@@H](NC(=O)[C@H](Cc1c[nH]c2ccccc12)NC(=O)[C@H](CC(=O)O)NC(=O)[C@H](C)NC(=O)[C@H](CS)NC(C)=O)C(C)C)C(=O)N[C@@H](Cc1ccccc1)C(=O)NCC(=O)NCCOCC(=O)N[C@H](CCCCN)C(N)=O` the value was 6 µM.
For `CC(C)[C@H](NC(=O)[C@H](Cc1c[nH]c2ccccc12)NC(=O)[C@H](CC(=O)O)NC(=O)[C@H](C)NC(=O)[C@@H](N)CS)C(=O)N[C@@H](CS)C(=O)N[C@@H](Cc1ccc(O)cc1)C(=O)N[C@@H](Cc1cccc2ccccc12)C(=O)N[C@@H](Cc1cnc[nH]1)C(=O)N[C@H](C(=O)N[C@@H](Cc1ccccc1)C(=O)O)[C@@H](C)O` the value was over 1 µM.
For `CC(=O)N[C@@H](CS)C(=O)N[C@@H](C)C(=O)N[C@@H](CC(=O)O)C(=O)N[C@@H](Cc1c[nH]c2ccccc12)C(=O)N[C@H](C(=O)N[C@@H](CS)C(=O)N[C@@H](Cc1ccc(O)cc1)C(=O)N[C@@H](Cc1c[nH]c2ccccc12)C(=O)N[C@@H](Cc1cnc[nH]1)C(=O)N[C@H](C(=O)N[C@@H](Cc1ccccc1)C(=O)NCC(=O)N[C@@H](C)C(=O)N[C@H](CCCCN)C(=O)O)[C@@H](C)O)C(C)C` the value was under 0.5 µM.
`CC(C)[C@H](NC(=O)[C@H](Cc1ccc2ccccc2c1)NC(=O)[C@H](CC(=O)O)NC(=O)[C@H](C)NC(=O)[C@@H](N)CS)C(=O)N[C@@H](CS)C(=O)N[C@@H](Cc1ccc(O)cc1)C(=O)N[C@@H](Cc1c[nH]c2ccccc12)C(=O)N[C@@H](Cc1cnc[nH]1)C(=O)N[C@H](C(=O)N[C@@H](Cc1ccccc1)C(=O)NCC(N)=O)[C@@H](C)O` gave an IC50 of over 1 µM.
The result for `CC(=O)N[C@@H](CS)C(=O)N[C@@H](CCC(N)=O)C(=O)N[C@H](C(=O)N[C@@H](Cc1c[nH]c2ccccc12)C(=O)N[C@@H](CCC(N)=O)C(=O)N[C@@H](CS)C(=O)N1Cc2ccccc2C[C@H]1C(=O)N[C@@H](Cc1c[nH]c2ccccc12)C(=O)N[C@@H](CCC(C)C)C(=O)N[C@@H](CCC(=O)O)C(=O)N[C@@H](CC(N)=O)C(=O)NCC(N)=O)[C@@H](C)O` reads over 30 µM; that for `CC(=O)N[C@@H](CS)C(=O)N[C@@H](CCC(N)=O)C(=O)N[C@H](C(=O)N[C@@H](Cc1c[nH]c2ccccc12)C(=O)N[C@@H](CCC(N)=O)C(=O)N[C@@H](CS)C(=O)N[C@@H](Cc1ccc(O)cc1)C(=O)N[C@@H](Cc1c[nH]c2ccccc12)C(=O)N[C@@H](CCCNC(=N)N)C(=O)N[C@@H](CCCNC(=N)N)CC(=O)N[C@H](C(=O)N[C@@H](CC(N)=O)C(=O)NCC(=O)NCCOCC(=O)N[C@H](CCCCN)C(N)=O)C(C)C)[C@@H](C)O`, 0.922 µM; that for `CC(=O)N[C@@H](CS)C(=O)N[C@@H](CCCNC(=N)N)C(=O)N[C@H](C(=O)N[C@@H](Cc1c[nH]c2ccccc12)C(=O)N[C@@H](CCC(=O)O)C(=O)N[C@@H](CS)C(=O)N[C@@H](Cc1ccc(O)cc1)C(=O)N[C@@H](Cc1c[nH]c2ccccc12)C(=O)N[C@@H](Cc1cnc[nH]1)C(=O)N[C@@H](CCC(=O)O)C(=O)N[C@@H](Cc1ccc(O)cc1)C(=O)NCC(N)=O)[C@@H](C)O` (Ac-CRTWECYWHEYG-NH2), under 0.5 µM.
For `CC(=O)N[C@@H](CS)C(=O)N[C@@H](CCCCN)C(=O)N[C@@H](CC(=O)O)C(=O)N[C@@H](Cc1c[nH]c2ccccc12)C(=O)N[C@H](C(=O)N[C@@H](CS)C(=O)N[C@@H](Cc1ccc(O)cc1)C(=O)N[C@@H](Cc1c[nH]c2ccccc12)C(=O)N[C@@H](Cc1cnc[nH]1)C(=O)N[C@H](C(=O)N[C@@H](Cc1ccccc1)C(=O)NCC(=O)O)[C@@H](C)O)C(C)C` the value was over 1 µM.
Compound `CC(=O)N[C@@H](CS)C(=O)N[C@@H](C)C(=O)N[C@@H](CC(=O)O)C(=O)N[C@@H](Cc1c[nH]c2ccccc12)C(=O)N[C@H](C(=O)N[C@@H](CS)C(=O)N[C@@H](Cc1ccc(O)cc1)C(=O)N[C@@H](Cc1c[nH]c2ccccc12)C(=O)N[C@@H](Cc1cnc[nH]1)C(=O)N[C@H](C(=O)N[C@@H](Cc1ccccc1)C(=O)NCC(=O)N[C@@H](C)C(=O)N1CC[C@H]1C(=O)N[C@H](CCCCN)C(=O)O)[C@@H](C)O)C(C)C` showed an IC50 of 0.1 to 1 µM.
For `CC(=O)N[C@H](CCCCNC(=O)COCC(=O)NCCCC[C@@H](NC(C)=O)C(=O)N[C@@H](CS)C(=O)N[C@@H](C)C(=O)N[C@@H](CC(=O)O)C(=O)N[C@@H](Cc1c[nH]c2ccccc12)C(=O)N[C@H](C(=O)N[C@@H](CS)C(=O)N[C@@H](Cc1ccc(O)cc1)C(=O)N[C@@H](Cc1c[nH]c2ccccc12)C(=O)N[C@@H](Cc1cnc[nH]1)C(=O)N[C@H](C(=O)N[C@@H](Cc1ccccc1)C(=O)NCC(=O)O)[C@@H](C)O)C(C)C)C(=O)N[C@@H](CS)C(=O)N[C@@H](C)C(=O)N[C@@H](CC(=O)O)C(=O)N[C@@H](Cc1c[nH]c2ccccc12)C(=O)N[C@H](C(=O)N[C@@H](CS)C(=O)N[C@@H](Cc1ccc(O)cc1)C(=O)N[C@@H](Cc1c[nH]c2ccccc12)C(=O)N[C@@H](Cc1cnc[nH]1)C(=O)N[C@H](C(=O)N[C@@H](Cc1ccccc1)C(=O)NCC(=O)O)[C@@H](C)O)C(C)C` the value was over 10 µM; for `CC(=O)N[C@@H](C)C(=O)N[C@H](C(=O)N[C@@H](CC(=O)O)C(=O)N[C@@H](Cc1c[nH]c2ccccc12)C(=O)N[C@H](C(=O)N[C@H](C(=O)N[C@@H](Cc1ccc(O)cc1)C(=O)N[C@@H](Cc1c[nH]c2ccccc12)C(=O)N[C@@H](CCCNC(=N)N)C(=O)N[C@@H](CCCCN)C(=O)N[C@@H](Cc1ccccc1)C(=O)NCC(=O)NCCOCC(=O)N[C@H](CCCCN)C(N)=O)C(C)(C)S)C(C)C)C(C)(C)S`, over 30 µM; for `C[C@@H](O)[C@H](NC(=O)[C@H](CCCNC(=N)N)NC(=O)[C@@H](N)CS)C(=O)N[C@@H](Cc1c[nH]c2ccccc12)C(=O)N[C@@H](CCC(N)=O)C(=O)N[C@@H](CS)C(=O)N[C@@H](Cc1ccc(O)cc1)C(=O)N[C@@H](Cc1c[nH]c2ccccc12)C(=O)N[C@@H](CCCNC(=N)N)C(=O)N[C@@H](CCCCN)C(=O)N[C@@H](Cc1ccccc1)C(=O)NCC(N)=O` (H-CRTWQCYWRKFG-NH2), under 0.5 µM.
For `CC(C)[C@H](NC(=O)[C@H](Cc1c[nH]c2ccccc12)NC(=O)[C@H](CC(=O)O)NC(=O)[C@H](C)NC(=O)[C@@H](N)CS)C(=O)N[C@@H](CS)C(=O)N[C@@H](Cc1ccc(O)cc1)C(=O)N[C@@H](Cc1c[nH]c2ccccc12)C(=O)N[C@@H](Cc1cnc[nH]1)C(=O)N[C@H](C(=O)N[C@@H](Cc1ccccc1)C(=O)NCC(=O)N[C@@H](CCCCN)C(=O)O)[C@@H](C)O` the value was over 1 µM; for `CC(=O)NCCCC[C@H](NC(=O)[C@](C)(CCCCN)NC(=O)[C@H](Cc1ccc2ccccc2c1)NC(=O)[C@H](Cc1ccc(Cl)c(Cl)c1)NC(=O)[C@@H](NC(=O)[C@H](CCC(N)=O)NC(=O)[C@H](Cc1c[nH]c2ccccc12)NC(=O)[C@@H](NC(=O)[C@H](CCC(N)=O)NC(=O)[C@@H](NC(C)=O)C(C)(C)S)[C@@H](C)O)C(C)(C)S)C(=O)N[C@@H](CC(N)=O)C(=O)NCC(N)=O`, 0.1 to 1 µM; for `CC(C)[C@H](NC(=O)[C@H](Cc1cnc[nH]1)NC(=O)[C@H](Cc1c[nH]c2ccccc12)NC(=O)[C@H](Cc1ccc(O)cc1)NC(=O)[C@H](CS)NC(=O)[C@@H](NC(=O)[C@H](Cc1c[nH]c2ccccc12)NC(=O)[C@@H](NC(=O)[C@H](CCCNC(=N)N)NC(=O)[C@@H](N)CS)[C@@H](C)O)C(C)C)C(=O)N[C@@H](Cc1ccccc1)C(=O)NCC(N)=O` (H-CRTWVCYWHVFG-NH2), over 1 µM.
The result for `CC(=O)N[C@@H](CS)C(=O)N[C@@H](CCC(N)=O)C(=O)N[C@H](C(=O)N[C@@H](Cc1c[nH]c2ccccc12)C(=O)N[C@H](C(=O)N[C@@H](CS)C(=O)N[C@@H](Cc1ccc(O)cc1)C(=O)N[C@@H](Cc1c[nH]c2ccccc12)C(=O)N[C@@H](CCCNC(=N)N)C(=O)N[C@@H](CCC(=O)O)C(=O)N[C@@H](CC(N)=O)C(=O)NCC(=O)NCCOCC(=O)N[C@H](CCCCN)C(N)=O)C(C)C)[C@@H](C)O` reads under 0.5 µM; that for `CC(C)[C@H](NC(=O)[C@H](Cc1c[nH]c2ccccc12)NC(=O)[C@H](CC(=O)O)NC(=O)[C@H](C)NC(=O)[C@@H](N)C(C)(C)S)C(=O)N[C@H](C(=O)N[C@@H](Cc1ccc(O)cc1)C(=O)N[C@@H](Cc1c[nH]c2ccccc12)C(=O)N[C@@H](Cc1cnc[nH]1)C(=O)N[C@H](C(=O)N[C@@H](Cc1ccccc1)C(=O)NCC(N)=O)[C@@H](C)O)C(C)(C)S`, over 6 µM.
